Values joined by “and” are separate entries in the source; they are usually repeats but may differ in a detail not shown here. Equal values may be shown once.
Columns and labels:
human GPR119 [1] = biological target: T1, human GPR119 (Homo sapiens, UniProt Q8TDV5); assay: β-Arrestin PathHunter assay (U2OS hGPR119 β-arrestin cells); type: cell-based; conditions: for EC50: U2OS hGPR119 β-arrestin cells, 90 min, each line a separate determination, read-out: Human B-arrestin Functional EC50; for Intrinsic Activity (Human B-arrestin) / Emax: percent of maximal activity relative to standard GPR119 agonist at 10 micromolar; for Emax: U2OS, read-out: Intrinsic Activity (Human B-arrestin)
T1 sequence (Q8TDV5 1-335): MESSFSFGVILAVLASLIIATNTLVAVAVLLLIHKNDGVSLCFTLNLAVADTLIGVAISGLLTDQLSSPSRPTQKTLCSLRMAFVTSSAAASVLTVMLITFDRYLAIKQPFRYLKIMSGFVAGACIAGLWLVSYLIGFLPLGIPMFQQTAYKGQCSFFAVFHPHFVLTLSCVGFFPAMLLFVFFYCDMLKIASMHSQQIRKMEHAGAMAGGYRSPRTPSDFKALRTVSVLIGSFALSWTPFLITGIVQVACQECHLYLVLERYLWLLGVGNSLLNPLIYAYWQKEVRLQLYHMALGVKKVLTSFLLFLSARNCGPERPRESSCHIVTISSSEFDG
Description: GPR119 agonist activity was also determined with a cell-based assay utilizing DiscoverX PathHunter β-arrestin cell assay technology and their U2OS hGPR119 β-arrestin cell line (DiscoverX Cat # 93-0356C3). In this assay, agonist activation is determined by measuring agonist-induced interaction of β-arrestin with activated GPR119. A small, 42 amino acid enzyme fragment, called ProLink was appended to the C-terminus of GPR119. Arrestin was fused to the larger enzyme fragment, termed EA (Enzyme Acceptor). Activation of GPR119 stimulates binding of arrestin and forces the complementation of the two enzyme fragments, resulting in formation of a functional β-galactosidase enzyme capable of hydrolyzing substrate and generating a chemiluminescent signal.
Specifically, U2OS hGPR119 β-arrestin cells (DiscoverX 1×10^7/mL) are removed from cryopreservation and diluted in growth medium (Minimum essential medium (MEM; Gibco Cat # 11095-080), 10% heat inactivated fetal bovine serum (HIFBS; Sigma Cat # F4135-100), […] sodium pyruvate (Sigma Cat # S8636), 500 microg/mL G418 (Sigma Cat # G8168) and 250 microg/mL Hygromycin B (Invitrogen Cat # 10687-010). The cell concentration was adjusted to 1.66×10^5 cells/mL and 30 mLs of this suspension was added to a T-175 flask and incubated at 37 degrees Celsius in a humidified environment in 5% carbon dioxide. After 24 hours, the cells were removed from the T-175 flask with enzyme-free cell dissociation buffer (Gibco cat #13151-014), centrifuged at 800×g and then re-suspended in plating medium (Opti-MEM I (Invitrogen/BRL Cat # 31985-070) and 2% charcoal dextran treated fetal bovine serum (CD serum; HyClone Cat # SH30068.03).
The cell concentration was adjusted to 2.5×10^5 cells/mL with plating medium and 20 microliters of this cell suspension (5000 cells) was added to each well of a white Greiner 384-well low volume assay plate (VWR cat #82051-458) and the plates were incubated at 37 degrees Celsius in a humidified environment in 5% carbon dioxide.
After 16 hours (overnight) the assay plates were removed from the incubator and varying concentrations of each compound to be tested (diluted in assay buffer (1×HBSS+CaCl2+MgCl2 (Gibco Cat # 14025-092), 20 mM HEPES pH 7.0 (Gibco Cat # 15630-080) and 0.1% BSA (Sigma Cat # A9576)) were added to the assay plate wells in a volume of 5 microliters (final DMSO concentration was 0.5%). After a 90 minute incubation at 37 degrees Celsius in a humidified environment in 5% carbon dioxide, 12 microliters of Galacton Star β-galactosidase substrate (PathHunter Detection Kit (DiscoveRx Cat # 93-0001); prepared as described in the manufacturers assay protocol) was added to each well of the assay plate. The plates were incubated at room temperature and after 60 minutes, changes in the luminescence were read with an Envision 2104 multilabel plate reader at 0.1 seconds per well. EC50 determinations were made from an agonist-response curves analyzed with a curve fitting program using a 4-parameter logistic dose response equation.

human GPR119 [2] = biological target: T1, human GPR119; assay: cAMP HTRF functional assay (hGPR119 HEK-CRE beta-lactamase cells); type: cell-based; design: host or cells: HEK293-CRE beta-lactamase; conditions: for EC50: HTRF cAMP, 30 min, 400 microM IBMX, each line a separate determination; for Intrinsic Activity (Human cAMP) / Emax: percent of maximal activity relative to standard GPR119 agonist at 10 micromolar; for Emax: read-out: Intrinsic Activity (Human cAMP)
Description: GPR119 agonist activity was also determined with a cell-based assay utilizing an HTRF (Homogeneous Time-Resolved Fluorescence) cAMP detection kit (cAMP dynamic 2 Assay Kit; Cis Bio cat #62AM4PEC) that measures cAMP levels in the cell. The method is a competitive immunoassay between native cAMP produced by the cells and the cAMP labeled with the dye d2. The tracer binding is visualized by a Mab anti-cAMP labeled with Cryptate. The specific signal (i.e. energy transfer) is inversely proportional to the concentration of cAMP in either standard or sample.
Specifically, hGPR119 HEK-CRE beta-lactamase cells (Invitrogen 2.5×10^7/mL; the same cell line used in the beta-lactamase assay described above) are removed from cryopreservation and diluted in growth medium (Dulbecco's modified Eagle medium high glucose (DMEM; Gibco Cat # 11995-065), 1% charcoal dextran treated fetal bovine serum (CD serum; HyClone Cat # SH30068.03), 1×MEM Nonessential amino acids (Gibco Cat # 15630-080) and 25 mM HEPES pH 7.0 (Gibco Cat # 15630-080)). The cell concentration was adjusted to 1.5×10^5 cells/mL and 30 mLs of this suspension was added to a T-175 flask and incubated at 37 degrees Celsius in a humidified environment in 5% carbon dioxide. After 16 hours (overnight), the cells were removed from the T-175 flask (by rapping the side of the flask), centrifuged at 800×g and then re-suspended in assay medium (1×HBSS+CaCl2+MgCl2 (Gibco Cat # 14025-092) and 25 mM HEPES pH 7.0 (Gibco Cat # 15630-080)). The cell concentration was adjusted to 6.25×10^5 cells/mL with assay medium and 8 μl of this cell suspension (5000 cells) was added to each well of a white Greiner 384-well, low-volume assay plate (VWR cat #82051-458).
Varying concentrations of each compound to be tested were diluted in assay buffer containing 3-isobutyl-1-methylxanthin (IBMX; Sigma cat #15879) and added to the assay plate wells in a volume of 2 microL (final IBMX concentration was 400 microM and final DMSO concentration was 0.58%). Following 30 minutes incubation at room temperature, 5 microL of labeled d2 cAMP and 5 microL of anti-cAMP antibody (both diluted 1:20 in cell lysis buffer; as described in the manufacturers assay protocol) were added to each well of the assay plate. The plates were then incubated at room temperature and after 60 minutes, changes in the HTRF signal were read with an Envision 2104 multilabel plate reader using excitation of 330 nm and emissions of 615 and 665 nm. Raw data were converted to nM cAMP by interpolation from a cAMP standard curve (as described in the manufacturer's assay protocol) and EC50 determinations were made from an agonist-response curves analyzed with a curve fitting program using a 4-parameter logistic dose response equation.

Row | EC50 (human GPR119 [1]) | EC50 (human GPR119 [2]) | Intrinsic Activity (Human cAMP) (human GPR119 [2]) | Emax (human GPR119 [1]) [%] | Emax (human GPR119 [2]) [%] | Compound | Intrinsic Activity (Human B-arrestin) (human GPR119 [1])
1 | > 10 µM | > 10 µM |  |  |  | Cc1c(O[C@@H]2[C@@H]3COC[C@H]2CN(C(=O)OC(C)C)C3)ncnc1N1CCc2ncccc21 [Example 29, Isopropyl (9-syn)-9-{[6-(2,3-dihydro-1H-pyrrolo[3,2-b]pyridin-1-yl)-5-methylpyrimidin-4-yl]oxy}-3-oxa-7-azabicyclo[3.3.1]nonane-7-carboxylate] | 
2 | 0.0894 µM | 0.0241 µM and 0.0397 µM and 0.0763 µM and 0.0302 µM | 19.5% and 29.2% and 24.4% | 29.1 | 20.3 | Cc1c(OC2CCN(C(=O)OC(C)C)CC2)ncnc1N1CCc2ncccc21 [Example 13, Isopropyl 4-{[6-(2,3-dihydro-1H-pyrrolo[3,2-b]pyridin-1-yl)-5-methylpyrimidin-4-yl]oxy}-piperidine-1-carboxylate] | 
3 |  | 0.0709 µM |  |  | 97.5 | CC(C)OC(=O)N1CCC(Oc2cc(N3CCc4cc(C(=O)N(C)C)ccc43)ncn2)CC1 [Example 9, 4-[6-(5-Dimethylcarbamoyl-2,3-dihydroindol-1-yl)-pyrimidin-4-yloxy]-piperidine-1-carboxylic acid isopropyl ester] | 
4 | 0.00278 µM | 0.00637 µM and 0.015 µM and 0.00929 µM | 21.8% and 27.7% | 48.6 | 24.8 | Cc1c(O[C@H]2CCN(C(=O)OC(C)(C)C)C[C@H]2F)ncnc1N1CCc2ncccc21 (racemic) [Example 16, tert-Butyl (3R,4S)-4-{[6-(2,3-dihydro-1H-pyrrolo[3,2-b]pyridin-1-yl)-5-methylpyrimidin-4-yl]oxy}-3-fluoropiperidine-1-carboxylate (racemic)] | 
5 | 0.00402 µM and 0.0229 µM and 0.00581 µM and 0.011 µM | 0.0745 µM and 0.0689 µM and 0.0427 µM and 0.0698 µM | 43.5% and 30.6% and 28.4% | 63.5 | 39.1 | Cc1c(O[C@H]2[C@@H]3COC[C@H]2CN(C(=O)OC2(C)CCC2)C3)ncnc1N1CCc2ncccc21 [Example 27, 1-Methylcyclobutyl (9-anti)-9-{[6-(2,3-dihydro-1H-pyrrolo[3,2-b]pyridin-1-yl)-5-methylpyrimidin-4-yl]oxy}-3-oxa-7-azabicyclo[3.3.1]nonane-7-carboxylate] | 64.2% and 58.1% and 51.4%
6 | 0.0402 µM and 0.0331 µM and 0.0746 µM and 0.0418 µM | 0.116 µM and 0.169 µM and 0.137 µM and 0.269 µM | 80.4% and 66.6% and 74.1% and 55.6% | 68.8 |  | Cc1c(O[C@H]2[C@@H]3COC[C@H]2CN(C(=O)OC(C)C)C3)ncnc1N1CCc2ncccc21 [Example 22, Isopropyl (9-anti)-9-{[6-(2,3-dihydro-1H-pyrrolo[3,2-b]pyridin-1-yl)-5-methylpyrimidin-4-yl]oxy}-3-oxa-7-azabicyclo[3.3.1]nonane-7-carboxylate] | 70.5% and 71.2% and 60.3%
7 |  | 0.0138 µM and 0.0329 µM | 105% |  | 104 | CC(C)OC(=O)N1CCC(Oc2cc(N3CCc4cc(C#N)ccc43)ncn2)CC1 [Example 10, Isopropyl 4-{[6-(5-cyano-2,3-dihydro-1H-indol-1-yl)pyrimidin-4-yl]oxy}piperidine-1-carboxylate] | 
8 |  | 0.0439 µM |  |  | 53 | Cc1c(OC2CCN(C(=O)OC(C)C)CC2)ncnc1N1CCc2cc(S(C)(=O)=O)ccc21 [Example 8, Isopropyl 4-({5-methyl-6-[5-(methylsulfonyl)-2,3-dihydro-1H-indol-1-yl]pyrimidin-4-yl}oxy)piperidine-1-carboxylate] | 
9 |  | 0.339 µM and 0.567 µM and 1.28 µM | 94% and 87.9% |  | 96.5 | CC(C)OC(=O)N1C[C@H]2COC[C@@H](C1)[C@H]2Oc1cc(N2CCc3cc(S(C)(=O)=O)ccc32)ncn1 [Example 1, Isopropyl 9-anti-({6-[5-(methylsulfonyl)-2,3-dihydro-1H-indol-1-yl]pyrimidin-4-yl}oxy)-3-oxa-7-azabicyclo[3.3.1]nonane-7-carboxylate] | 
10 |  | 0.0994 µM |  |  | 90.3 | CC(C)OC(=O)N1CCC(Oc2cc(N3CCc4cc(S(=O)(=O)CCO)ccc43)ncn2)CC1 [Example 11, Isopropyl 4-[(6-{5-[(2-hydroxyethyl)sulfonyl]-2,3-dihydro-1H-indol-1-yl}pyrimidin-4-yl)oxy]piperidine-1-carboxylate] | 

Row | Compound | EC50 (human GPR119 [1]) | EC50 (human GPR119 [2]) | Intrinsic Activity (Human cAMP) (human GPR119 [2]) | Emax (human GPR119 [1]) [%] | Emax (human GPR119 [2]) [%] | Intrinsic Activity (Human B-arrestin) (human GPR119 [1])
11 | Cc1c(O[C@H]2[C@@H]3COC[C@H]2CN(C(=O)OC2(C)CC2)C3)ncnc1N1CCc2ncccc21 [Example 25, 1-Methylcyclopropyl (9-anti)-9-{[6-(2,3-dihydro-1H-pyrrolo[3,2-b]pyridin-1-yl)-5-methylpyrimidin-4-yl]oxy}-3-oxa-7-azabicyclo[3.3.1]nonane-7-carboxylate] | 0.0147 µM and 0.0124 µM and 0.0193 µM and 0.0407 µM and 0.0182 µM |  | 52.9% and 68.3% and 67.7% and 74.3% and 62.9% |  |  | 58.7% and 81% and 78.6% and 68.6% and 74.5%
12 | Cc1c(O[C@H]2CCN(C(=O)OC3(C)CC3)C[C@H]2F)ncnc1N1CCc2ncccc21 [Example 17, 1-Methylcyclopropyl (3R,4S)-4-{[6-(2,3-dihydro-1H-pyrrolo[3,2-b]pyridin-1-yl)-5-methylpyrimidin-4-yl]oxy}-3-fluoropiperidine-1-carboxylate] | 0.00213 µM and 0.00586 µM and 0.00662 µM and 0.00505 µM and 0.0047 µM | 0.019 µM and 0.0285 µM and 0.0137 µM and 0.0148 µM and 0.0169 µM and 0.0194 µM | 69.6% and 48.7% and 53.8% and 63.9% and 53.1% and 48.5% |  |  | 68.9% and 54.3% and 59.2% and 52.8% and 76.9%

From patent US20100285145A1, “GPR 119 MODULATORS” (PFIZER INC, priority 2009, published 2010)
